Data on 12 compounds can be found in ChEMBL document CHEMBL1201862, “PubChem BioAssay data set” (2004).

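96-well plates; 48 h exposure; 5 concentrations. Endpoints by linear interpolation between flanking doses. Not reached: highest tested concentration assigned. GI50 is the concentration that inhibits growth by half.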 Active and inactive are the calls of the source. Cut-off read from the data, not from the text of the source: active = GI50 up to about 1.1 µM and inactive = higher. Some results are limits rather than exact numbers.

Test systems include CAKI-1; CCRF-CEM; HCC 2998; HCT-116; HT-29; Hs-578T; MOLT-4; NCI-H522; OVCAR-3; OVCAR-5; OVCAR-8; SF-539; SK-MEL-28; SK-OV-3; SNB-19; SNB-75; SR; BT-549; TK-10.
What all share (test): inhibition of tumour cell growth, NCI panel, 48 h

Regarding `CC(=O)CN/C(C)=N/Nc1ccc([N+](=O)[O-])cc1[N+](=O)[O-]`, the GI50 was 15.3 µM (inactive) with CAKI-1; > 100 µM (inactive) with CCRF-CEM; > 100 µM (inactive) in the assay with HCC 2998; > 100 µM (inactive) in the assay with HCT-116; > 100 µM (inactive) in the assay on HT-29; > 100 µM (inactive) with Hs-578T. The GI50 with MOLT-4, in the assay on NCI-H522, with OVCAR-3, in the assay on OVCAR-5, in the assay on OVCAR-8 and with SF-539 was > 100 µM (inactive) each time. The GI50 with SK-MEL-28, with SK-OV-3, with SNB-19, with SNB-75 and in the assay on SR was > 100 µM (inactive) each time.
As for `O=C1Cc2c([nH]c3ccc([N+](=O)[O-])cc23)-c2ccccc2N1` [ALSTERPAULLONE], the GI50 in the assay on BT-549 was 1.08 µM (active); in the assay with CAKI-1 it was 0.332 µM (active); in the assay with CCRF-CEM it was 0.118 µM (active); in the assay on HCC 2998 it was 0.914 µM (active); with HCT-116, 0.116 µM (active); in the assay with HT-29, 0.389 µM (active). In addition, the GI50 is 0.312 µM (active) in the assay on MOLT-4; 1.22 µM (inactive) with NCI-H522; 0.158 µM (active) in the assay on OVCAR-3; 0.22 µM (active) in the assay on OVCAR-5; 0.446 µM (active) in the assay on OVCAR-8; 0.397 µM (active) in the assay on SF-539. Moreover, the GI50 in the assay on SK-MEL-28 is 0.345 µM (active); in the assay with SK-OV-3 it was 2.3 µM (inactive); in the assay with SNB-19, 0.478 µM (active); with SNB-75 it was 0.804 µM (active); with TK-10, 0.757 µM (active).
Turning to `CN(C)CC1COC2Cc3ccccc3C1O2` (stereo unspecified), the GI50 in the assay on CAKI-1, in the assay with CCRF-CEM, in the assay on HCC 2998, in the assay with HCT-116, with HT-29 and in the assay on Hs-578T was > 100 µM (inactive) in each case. For the same compound, the GI50 with MOLT-4, in the assay on NCI-H522, with OVCAR-3, in the assay with OVCAR-5, in the assay on OVCAR-8 and in the assay with SF-539 was > 100 µM (inactive) in each case. The GI50 in the assay on SK-MEL-28, in the assay on SK-OV-3, in the assay with SNB-19, in the assay with SR and in the assay on TK-10 was > 100 µM (inactive) in each case.
With `CN(C)CCNC(=O)c1cccc2[nH]c(-c3cccnc3)nc12`, the GI50 in the assay with CAKI-1 is 27.6 µM (inactive); in the assay with CCRF-CEM, 28.4 µM (inactive); in the assay on HCC 2998, 17.1 µM (inactive); in the assay with HCT-116 it was 9.55 µM (inactive); with HT-29, 27.4 µM (inactive); in the assay on MOLT-4, 25.8 µM (inactive). The GI50 with OVCAR-3 is 20.8 µM (inactive); in the assay on OVCAR-5 it was 28.1 µM (inactive); with OVCAR-8, 17.5 µM (inactive); in the assay with SF-539, 17.7 µM (inactive); with SK-MEL-28, 31.7 µM (inactive); in the assay on SK-OV-3 it was 22.6 µM (inactive). Also, the results for the GI50 in the assay with SNB-19, in the assay with SNB-75 and with TK-10 were 28.1 µM (inactive), 20.9 µM (inactive) and 19.8 µM (inactive), respectively.
As for `COc1cc([N+](=O)[O-])c(S(=O)(=O)[O-])cc1-[n+]1nc(C(=O)Nc2ccccc2)nn1-c1ccc([N+](=O)[O-])c(S(=O)(=O)O)c1`, the GI50 in the assay on CAKI-1, with CCRF-CEM, in the assay with HCC 2998, with HCT-116, in the assay with HT-29 and with Hs-578T was > 100 µM (inactive) throughout. The GI50 with MOLT-4, in the assay with NCI-H522, in the assay with OVCAR-3, with OVCAR-5, with SF-539 and in the assay on SK-MEL-28 was > 100 µM (inactive) each time. Besides, the GI50 in the assay on SK-OV-3, in the assay on SNB-19, in the assay with SNB-75, in the assay with SR and in the assay with TK-10 was > 100 µM (inactive) in each case.
In the case of `CN(C)CCCNc1ccc2c(=O)n(CCN(C)C)c(=O)n3c4ccccc4c(=O)c1c23`, the GI50 with CAKI-1 is 0.211 µM (active); in the assay with CCRF-CEM, 0.132 µM (active); with HCC 2998, 0.112 µM (active); in the assay with HCT-116, 0.0752 µM (active); in the assay with HT-29 it was 0.0647 µM (active); with Hs-578T, 1.49 µM (inactive). In addition, the GI50 in the assay with MOLT-4 was 0.0268 µM (active); in the assay with NCI-H522, 0.101 µM (active); in the assay on OVCAR-3 it was 0.34 µM (active); in the assay with OVCAR-5, 0.356 µM (active); in the assay with OVCAR-8 it was 0.22 µM (active); with SF-539, 0.486 µM (active). Besides, the GI50 in the assay on SK-MEL-28 was 0.628 µM (active); in the assay with SK-OV-3 it was 0.582 µM (active); in the assay on SNB-19 it was 0.132 µM (active); with SNB-75 it was 1.1 µM (active); in the assay on SR, 0.022 µM (active); with TK-10 it was 0.518 µM (active).
Take `NS(=O)(=O)c1cc2c(cc1Cl)NCNS2(=O)=O` [HYDROCHLOROTHIAZIDE]: the GI50 in the assay on CAKI-1, with CCRF-CEM, in the assay on HCC 2998, with HCT-116, in the assay with HT-29 and in the assay with Hs-578T was > 100 µM (inactive) in each case. For the same compound, the GI50 in the assay with MOLT-4, in the assay with NCI-H522, in the assay with OVCAR-3, in the assay on OVCAR-5, in the assay with OVCAR-8 and with SF-539 was > 100 µM (inactive) each time. The GI50 in the assay on SK-MEL-28, in the assay with SNB-19, with SNB-75, in the assay on SR and in the assay with TK-10 was > 100 µM (inactive) throughout.
Regarding `COc1ccc(Cn2nc(OCc3ccccc3)c3cc([N+](=O)[O-])ccc32)cc1`, the GI50 was > 100 µM (inactive) in the assay on CCRF-CEM; 99.3 µM (inactive) in the assay with HCC 2998; > 100 µM (inactive) in the assay with HT-29; > 100 µM (inactive) in the assay with Hs-578T; > 100 µM (inactive) in the assay on MOLT-4; > 100 µM (inactive) in the assay on NCI-H522. Further, the GI50 in the assay with OVCAR-3, with OVCAR-5, in the assay on OVCAR-8, with SF-539, in the assay with SK-MEL-28 and with SK-OV-3 was > 100 µM (inactive) throughout. Also, the GI50 with SNB-19, in the assay with SNB-75, in the assay with SR and in the assay on TK-10 was > 100 µM (inactive) in each case.
`COc1ccc(CNc2cnc3ccc(N)cc3n2)cc1`: the GI50 is > 100 µM (inactive) in the assay on CAKI-1; 49.2 µM (inactive) in the assay on CCRF-CEM; > 100 µM (inactive) with HCC 2998; 0.0622 µM (active) with HCT-116; > 100 µM (inactive) with HT-29; 24.7 µM (inactive) in the assay on MOLT-4. For the same compound, the GI50 in the assay with NCI-H522 is > 100 µM (inactive); in the assay with OVCAR-3 it was > 100 µM (inactive); with OVCAR-5 it was > 100 µM (inactive); with OVCAR-8, > 100 µM (inactive); in the assay with SF-539, > 100 µM (inactive); with SK-MEL-28, 3.84 µM (inactive). Further, the figures for the GI50 in the assay with SNB-19, with SNB-75 and in the assay with TK-10 were > 100 µM (inactive), 64.6 µM (inactive) and > 100 µM (inactive), respectively.
Take `C=C(C)[C@H]1CC(=O)[C@@]2(C)C[C@H]3O[C@]3(C)CC/C=C(\C)CC[C@H]12`: the GI50 in the assay with CAKI-1 is 28.2 µM (inactive); in the assay on CCRF-CEM it was 32.7 µM (inactive); in the assay with HCC 2998 it was > 100 µM (inactive); in the assay on HCT-116, 33.9 µM (inactive); in the assay on HT-29 it was 34.1 µM (inactive); in the assay with MOLT-4, 24 µM (inactive). The GI50 in the assay on NCI-H522 was 37.1 µM (inactive); in the assay with OVCAR-3, 29.9 µM (inactive); in the assay on OVCAR-5 it was 86.9 µM (inactive); in the assay on OVCAR-8, 98.4 µM (inactive); in the assay on SF-539 it was 42 µM (inactive); in the assay with SK-MEL-28, 50.4 µM (inactive). The GI50 with SK-OV-3 is 63.2 µM (inactive); in the assay with SNB-19 it was 70 µM (inactive); in the assay on SNB-75, 58.3 µM (inactive); in the assay on TK-10 it was 22.2 µM (inactive).
On to `Fc1ccc(NCn2nc(COc3ccccc3Cl)n(/N=C/c3ccc(-c4ccc(Cl)cc4Cl)o3)c2=S)cc1Cl`, for which the GI50 with CAKI-1 is 34.4 µM (inactive); with CCRF-CEM, 25.5 µM (inactive); in the assay with HCT-116, 28.4 µM (inactive); with HT-29, > 100 µM (inactive); with Hs-578T, 82.6 µM (inactive); in the assay with MOLT-4, 16.1 µM (inactive). Further, the GI50 was 36.7 µM (inactive) with NCI-H522; 37.9 µM (inactive) in the assay with OVCAR-3; > 100 µM (inactive) in the assay on OVCAR-5; 36.1 µM (inactive) in the assay on OVCAR-8; 31.3 µM (inactive) in the assay with SF-539; > 100 µM (inactive) in the assay on SK-MEL-28. Besides, the GI50 in the assay on SK-OV-3 was 46.6 µM (inactive); with SR, 16.6 µM (inactive); with TK-10 it was 31.8 µM (inactive).
Regarding `COC(=O)C1(Cc2ccccc2)Cc2ccccc2C1`, the GI50 was 18.5 µM (inactive) in the assay with CAKI-1; 15.5 µM (inactive) in the assay on CCRF-CEM; 29.6 µM (inactive) in the assay with HCC 2998; 17.3 µM (inactive) with HCT-116; 20.4 µM (inactive) in the assay with HT-29; 27.5 µM (inactive) with Hs-578T. The GI50 is 14.8 µM (inactive) with MOLT-4; > 10 µM (inactive) in the assay with OVCAR-3; 31.8 µM (inactive) with OVCAR-5; 22.8 µM (inactive) with OVCAR-8; 50.9 µM (inactive) in the assay on SF-539; 26.9 µM (inactive) in the assay on SK-MEL-28. Moreover, the GI50 with SK-OV-3 was 39.6 µM (inactive); in the assay with SNB-75, 23.3 µM (inactive); with SR, 24.4 µM (inactive); with TK-10, 21.2 µM (inactive).
